Measured values: a melting point compilation (Tetko et al.; mined from patent text by program, amines drawn as free bases though some values may be those of a salt)

| Structure (SMILES) | melting point [°C] |
| --- | --- |
| CC(Nc1nc2ccc(Cl)cc2cc1C(=O)O)C(=O)O (stereo unspecified) | 178 to 190 |
| COc1ccc2c(-c3ccc(F)cc3F)noc2c1Cl | 189 to 191 |
| CC(C)(C)CC(C)(C)c1cc(N=Nc2cc(C#N)ccc2Cl)c(O)c(C(C)(C)c2ccccc2)c1 | 190 to 191 |
| CCNC(=N)NC(=O)Cc1ccc(Cl)cc1 | 146 to 147 |
| COC(=O)N(C)c1cccc(C(=O)C=CN(C)C)c1 | 93 to 95 |
| BrCCCCCCCCCCn1c2ccccc2c2ccccc21 | 38 to 40 |
| C1=C2NCCCN2C(c2ccccc2)c2ccccc2C1 (stereo unspecified) | 138 to 141 |
| O=CNCc1ncc(-c2ccccc2)o1 | 225 to 228 |
| CCN(CC)CC#CCCC(=O)C(O)(c1ccccc1)C1CCCCC1 (stereo unspecified) | 112 to 115 |
| c1ccc2c(c1)N=C(N1CCCCC1)c1cscc1N2 | 157 to 159 |
| CCCCNc1cccc2c1C(=O)c1ccccc1C2=O | 78 to 79 |
| Cc1nc2c(c3c1[nH]c1ccccc13)C(=NO)CC(C)(C)C2 | 293 to 294 |
| Nc1nc(NCCO)c(Cl)nc1[N+](=O)[O-] | 196 to 197 |
| N#CC(NC(=O)c1ccccc1)n1cccn1 (stereo unspecified) | 169 to 174 |
| O=C(C(Cl)Cl)N1CCCCCCC1 | 83 |
| O=C(O)C1Cc2c(ccc3c(=O)c4c(Cl)cccc4oc23)O1 (stereo unspecified) | 283 to 286 |
| Cc1c(C#N)c(=O)n(-c2cc(C(=O)OC(C)C)c(Cl)cc2F)c(=O)n1C | 171 to 173 |
| CN1C(=O)C(F)N=C(c2ccccc2F)c2cc(Cl)ccc21 (stereo unspecified) | 91 to 95 |
| N#CC(C(=O)Nc1ccc(F)cc1F)C(=O)c1ccc[nH]1 (stereo unspecified) | 169 to 171 |
| O=C(O)C1c2cccnc2NN1C(=O)O (stereo unspecified) | 270 to 285 |
| N#CC1c2ccccc2C=Cc2ccccc21 | 102 to 104 |
| Cc1cc([N+](=O)[O-])cc2c1OCC2 | 80 to 81 |
| O=C(CCC(O)c1cccs1)Nc1cccc2cc(-c3nccs3)[nH]c12 (stereo unspecified) | 155 to 157 |
| CC(C)(C)c1cc(C(=O)Oc2ccc(Cl)c(N)c2)cc(C(C)(C)C)c1O | 64 to 66 |
| O=C(O)c1ncn2c(C(F)F)cc(-c3ccc(C(F)(F)F)cc3)nc12 | 238 |
| CN(C)C1=NS(=O)(=O)N=C1N[C@@H]1c2cc(OC(F)(F)F)ccc2OC(C)(C)[C@H]1O | 135 to 140 |
| O=C(CCCCCBr)NC1CCCCC1 | 73 to 74 |

Next, values leading:

| melting point [°C] | Structure (SMILES) |
| --- | --- |
| 124 to 126 | CCOC(=O)COc1cccc2c1CCc1sc(SC(c3ccccc3)c3ccccc3)nc1-2 |
| 112 to 114 | COC(=O)C1c2ccc(OCc3ccccc3)cc2CCN1CC(=O)N1CCC(c2ccccc2)CC1 (stereo unspecified) |
| 224 to 226 | CC(=O)Nc1ccccc1NS(=O)(=O)c1cc(C(=O)O)cc([N+](=O)[O-])c1Oc1ccccc1 |
| 172 to 174 | NC(=O)c1c(Cl)c(-c2ccccc2)n2c1CN(C(=O)CCC1CCCC1)CC2 |
| 114 to 115 | COc1ccc2c(c1)c(-c1ccccc1)nc(=O)n2CC1CC1 |
| 183 to 184 | Cc1nc(Cc2ccc(NC(=O)/C=C/c3cnn(C)c3-c3ccc(F)cc3)cc2)no1 |
| 166 to 171 | CC(=O)N(C)c1c(C(=O)c2cccc(C)c2)[nH]c2cc(Cl)ccc12 |
| 180 to 182 | COc1cc(N)c(Cl)cc1C(=O)NCCC1CN(Cc2ccc(C#N)cc2)CCO1 (stereo unspecified) |
| 115 to 135 | CC(C)(C)OC(=O)N(CC=CCl)c1cc(OCc2ccccc2)c2ncccc2c1I |
| 229 to 230 | Cc1ccc(-c2ccc3c(c2)C=C(C(=O)Nc2ccc(CN(C)C4CCOCC4)cc2)CCN3C=O)cc1 |
| 142 to 144 | CN(C)CCC=Cc1ccc2c(c1)CCCN2C(=O)c1ccc(-c2ccc(Cl)cc2)cc1 |
| 93.5 to 94.5 | O=C1c2cc(Oc3ccc(Cl)cc3)ccc2CCN1Cc1cccnc1 |
| 74 to 80 | OC[C@H]1CCCN1c1cc(N2CCc3ccccc3C2)c2ccccc2n1 |
| > 300 | CCCn1c(=O)c2nc(-c3ccc(/C=C/C(=O)OCC)cc3)[nH]c2n(CCC)c1=O |
